{"source": "patent US6407041B1", "about": "“Substituted 2,4-diamino-1,3,5-triazines” (Bayer Aktiengesellschaft, priority 1997, dated 2002)", "key": {"Alopecurus [1]": {"tested_on": "Alopecurus", "assay": "Pre-emergence test (greenhouse)", "assay_type": "in vivo", "details": "1000 g of ai./ha, rated after three weeks vs untreated control, 0%=no effect, 100%=total destruction", "description": "(§1) Solvent: 5 parts by weight of acetone\n(§2) Emulsifier: 1 part by weight of alkylaryl polyglycol ether\n(§3) To produce a suitable preparation of active compound, 1 part by weight of active compound is mixed with the stated amount of solvent, the stated amount of emulsifier is added and the concentrate is diluted with water to the desired concentration.\n(§4) Seeds of the test plants are sown in normal soil. After about 24 hours, the soil is sprayed with the preparation of active compound such that the particular amounts of active compound desired are applied per unit area. The concentration of the spray liquor is chosen so that the particular amounts of active compound desired are applied in 1000 l of water/ha.\n(§5) After three weeks, the degree of damage to the plants is rated in % damage in comparison with the development of the untreated control.\n(§6) 0%=no effect (like untreated control)"}, "Abutilon [2]": {"tested_on": "Abutilon", "assay": "Pre-emergence test (greenhouse)", "assay_type": "in vivo", "details": "1000 g of ai./ha, rated after three weeks vs untreated control, 0%=no effect, 100%=total destruction", "description": "as §1, §2, §3, §4, §5, §6"}, "Galium [3]": {"tested_on": "Galium", "assay": "Pre-emergence test (greenhouse)", "assay_type": "in vivo", "details": "1000 g of ai./ha, rated after three weeks vs untreated control, 0%=no effect, 100%=total destruction", "description": "as §1, §2, §3, §4, §5, §6"}, "Setaria": {"tested_on": "Setaria", "assay": "Pre-emergence test (greenhouse)", "assay_type": "in vivo", "details": "1000 g of ai./ha, rated after three weeks vs untreated control, 0%=no effect, 100%=total destruction", "description": "as §1, §2, §3, §4, §5, §6"}, "Sinapis [4]": {"tested_on": "Sinapis", "assay": "Pre-emergence test (greenhouse)", "assay_type": "in vivo", "details": "1000 g of ai./ha, rated after three weeks vs untreated control, 0%=no effect, 100%=total destruction", "description": "as §1, §2, §3, §4, §5, §6"}, "Amaranthus [5]": {"tested_on": "Amaranthus", "assay": "Pre-emergence test (greenhouse)", "assay_type": "in vivo", "details": "1000 g of ai./ha, rated after three weeks vs untreated control, 0%=no effect, 100%=total destruction", "description": "as §1, §2, §3, §4, §5, §6"}, "Maize": {"tested_on": "Maize", "assay": "Pre-emergence test (greenhouse), crop plant", "assay_type": "in vivo", "details": "1000 g of ai./ha, rated after three weeks vs untreated control, 0%=no effect, 100%=total destruction", "description": "as §1, §2, §3, §4, §5, §6"}, "weeds [6]": {"tested_on": "weeds", "assay": "Pre-emergence test, overall action", "assay_type": "in vivo", "details": "result in words", "description": "as §1, §2, §3, §4, §5, §6"}, "weeds [7]": {"tested_on": "weeds", "assay": "Post-emergence test, overall action", "assay_type": "in vivo", "details": "result in words", "description": "as §1, §2\n(§7) To produce a suitable preparation of active compound, I part by weight of active compound is mixed with the stated amount of solvent, the stated amount of emulsifier is added and the concentrate is diluted with water to the desired concentration.\nas §4, with “Test plants having a height” for “Seeds”, “5-15 cm” for “the test plants”, “are” for “are sown in normal soil. After about 24 hours, the soil is”\nas §5, §6"}, "Alopecurus [8]": {"tested_on": "Alopecurus", "assay": "Post-emergence test/greenhouse", "assay_type": "in vivo", "details": "1000 g of ai./ha, test plants 5-15 cm, rated after three weeks vs untreated control, 0%=no effect, 100%=total destruction", "description": "as §1, §2, §7\nas §4, with “Test plants having a height” for “Seeds”, “5-15 cm” for “the test plants”, “are” for “are sown in normal soil. After about 24 hours, the soil is”\nas §5, §6"}, "Abutilon [9]": {"tested_on": "Abutilon", "assay": "Post-emergence test/greenhouse", "assay_type": "in vivo", "details": "1000 g of ai./ha, test plants 5-15 cm, rated after three weeks vs untreated control, 0%=no effect, 100%=total destruction", "description": "as §1, §2, §7\nas §4, with “Test plants having a height” for “Seeds”, “5-15 cm” for “the test plants”, “are” for “are sown in normal soil. After about 24 hours, the soil is”\nas §5, §6"}, "Galium [10]": {"tested_on": "Galium", "assay": "Post-emergence test/greenhouse", "assay_type": "in vivo", "details": "1000 g of ai./ha, test plants 5-15 cm, rated after three weeks vs untreated control, 0%=no effect, 100%=total destruction", "description": "as §1, §2, §7\nas §4, with “Test plants having a height” for “Seeds”, “5-15 cm” for “the test plants”, “are” for “are sown in normal soil. After about 24 hours, the soil is”\nas §5, §6"}, "Sinapis [11]": {"tested_on": "Sinapis", "assay": "Post-emergence test/greenhouse", "assay_type": "in vivo", "details": "1000 g of ai./ha, test plants 5-15 cm, rated after three weeks vs untreated control, 0%=no effect, 100%=total destruction", "description": "as §1, §2, §7\nas §4, with “Test plants having a height” for “Seeds”, “5-15 cm” for “the test plants”, “are” for “are sown in normal soil. After about 24 hours, the soil is”\nas §5, §6"}, "Amaranthus [12]": {"tested_on": "Amaranthus", "assay": "Post-emergence test/greenhouse", "assay_type": "in vivo", "details": "1000 g of ai./ha, test plants 5-15 cm, rated after three weeks vs untreated control, 0%=no effect, 100%=total destruction", "description": "as §1, §2, §7\nas §4, with “Test plants having a height” for “Seeds”, “5-15 cm” for “the test plants”, “are” for “are sown in normal soil. After about 24 hours, the soil is”\nas §5, §6"}}, "data": [{"smiles": "CCC(COCc1ccccc1)Nc1nc(N)nc(C(C)(C)F)n1", "note": "(centres unmarked) [drawing 495]", "values": [{"measurement": "degree of damage to the plants, Alopecurus", "setting": "Alopecurus [1]", "result": 100, "unit": "%"}, {"measurement": "degree of damage to the plants, Abutilon", "setting": "Abutilon [2]", "result": 100, "unit": "%"}, {"measurement": "degree of damage to the plants, Galium", "setting": "Galium [3]", "result": 100, "unit": "%"}, {"measurement": "degree of damage to the plants, Setaria", "setting": "Setaria", "result": 100, "unit": "%"}, {"measurement": "degree of damage to the plants, Sinapis", "setting": "Sinapis [4]", "result": 100, "unit": "%"}, {"measurement": "degree of damage to the plants, Amaranthus", "setting": "Amaranthus [5]", "result": 100, "unit": "%"}]}, {"smiles": "CCC(COCc1cccc(Cl)c1)Nc1nc(N)nc(C(C)(C)F)n1", "note": "(centres unmarked) [drawing 496]", "values": [{"measurement": "degree of damage to the plants, Alopecurus", "setting": "Alopecurus [1]", "result": 95, "unit": "%"}, {"measurement": "degree of damage to the plants, Abutilon", "setting": "Abutilon [2]", "result": 95, "unit": "%"}, {"measurement": "degree of damage to the plants, Sinapis", "setting": "Sinapis [4]", "result": 90, "unit": "%"}, {"measurement": "degree of damage to the plants, Amaranthus", "setting": "Amaranthus [5]", "result": 100, "unit": "%"}, {"measurement": "degree of damage to the plants, Maize", "setting": "Maize", "result": 10, "unit": "%"}]}, {"smiles": "CCC(COCc1ccccc1C)Nc1nc(NC(C)=O)nc(C(C)(C)F)n1", "note": "(racemic) [Example 2]", "values": [{"measurement": "melting point", "result": 108, "unit": "°C"}]}, {"smiles": "CCC(COCc1cccc(Cl)c1)Nc1nc(N)nc(C(C)(C)F)n1", "note": "(centres unmarked) [Example 14]", "values": [{"measurement": "action against weeds", "setting": "weeds [6]", "result": "very strong action against weeds"}, {"measurement": "melting point", "result": 104, "unit": "°C"}, {"measurement": "action against weeds", "setting": "weeds [7]", "result": "very strong action against weeds"}]}, {"smiles": "CCC(COCc1ccccc1)Nc1nc(N)nc(C(C)(C)F)n1", "note": "(centres unmarked) [Example 8]", "values": [{"measurement": "action against weeds", "setting": "weeds [6]", "result": "very strong action against weeds"}, {"measurement": "melting point", "result": 114, "unit": "°C"}, {"measurement": "action against weeds", "setting": "weeds [7]", "result": "very strong action against weeds"}]}, {"smiles": "CCC(COCc1cccc(Cl)c1)Nc1nc(N)nc(C(C)(C)F)n1", "note": "(centres unmarked) [drawing 498]", "values": [{"measurement": "degree of damage to the plants, Alopecurus", "setting": "Alopecurus [8]", "result": 100, "unit": "%"}, {"measurement": "degree of damage to the plants, Abutilon", "setting": "Abutilon [9]", "result": 100, "unit": "%"}, {"measurement": "degree of damage to the plants, Galium", "setting": "Galium [10]", "result": 95, "unit": "%"}, {"measurement": "degree of damage to the plants, Sinapis", "setting": "Sinapis [11]", "result": 100, "unit": "%"}, {"measurement": "degree of damage to the plants, Amaranthus", "setting": "Amaranthus [12]", "result": 100, "unit": "%"}]}, {"smiles": "CCc1nc(N)nc(NC(CC)COCc2ccc(F)cc2)n1", "note": "(racemic) [Example 1, 2-amino-4-ethyl-6-[1-(4-fluorobenzyloxymethyl)-propylamino]-1,3,5-triazine]", "values": [{"measurement": "melting point", "result": 96, "unit": "°C"}]}, {"smiles": "CCC(COCc1ccccc1)Nc1nc(N)nc(C(C)(C)F)n1", "note": "(centres unmarked) [drawing 497]", "values": [{"measurement": "degree of damage to the plants, Alopecurus", "setting": "Alopecurus [8]", "result": 95, "unit": "%"}, {"measurement": "degree of damage to the plants, Abutilon", "setting": "Abutilon [9]", "result": 100, "unit": "%"}, {"measurement": "degree of damage to the plants, Galium", "setting": "Galium [10]", "result": 90, "unit": "%"}, {"measurement": "degree of damage to the plants, Sinapis", "setting": "Sinapis [11]", "result": 100, "unit": "%"}, {"measurement": "degree of damage to the plants, Amaranthus", "setting": "Amaranthus [12]", "result": 100, "unit": "%"}]}]}
